Measurements taken from US7303740B2, “Methods for the diagnosis and treatment of breast cancer” (Albert Einstein College of Medicine of Yeshiva University, priority 2000, dated 2007).

How the values were obtained:
NIS = molecular target: T1, NIS (Rattus norvegicus, UniProt Q63008); format: in vivo
T1 construct: from tissue; host or cells: living female rats (nubile and lactating): thyroid, stomach, lactating mammary gland
T1 sequence (Q63008 1-618): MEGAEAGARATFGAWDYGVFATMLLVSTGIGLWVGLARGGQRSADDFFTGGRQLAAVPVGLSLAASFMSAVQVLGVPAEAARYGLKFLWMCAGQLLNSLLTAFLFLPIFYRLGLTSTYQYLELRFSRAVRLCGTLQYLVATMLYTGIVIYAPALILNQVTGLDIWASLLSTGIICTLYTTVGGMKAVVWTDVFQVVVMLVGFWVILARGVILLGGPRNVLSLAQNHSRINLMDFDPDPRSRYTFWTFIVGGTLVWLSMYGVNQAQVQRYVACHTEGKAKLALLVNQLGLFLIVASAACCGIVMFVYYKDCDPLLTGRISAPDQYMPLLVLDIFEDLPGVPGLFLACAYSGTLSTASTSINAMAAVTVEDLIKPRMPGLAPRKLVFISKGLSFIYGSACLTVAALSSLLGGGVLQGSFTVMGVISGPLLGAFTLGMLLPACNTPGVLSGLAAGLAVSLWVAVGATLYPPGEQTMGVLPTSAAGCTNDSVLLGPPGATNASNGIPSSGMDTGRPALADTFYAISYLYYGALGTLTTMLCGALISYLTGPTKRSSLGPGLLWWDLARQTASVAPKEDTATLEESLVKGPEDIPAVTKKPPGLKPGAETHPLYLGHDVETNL
Experimental: FIG. 1. Characterization of I^− accumulation and NIS expression in rat lactating MG and stomach. (A)-(C) In vivo scintigraphic imaging of ^99mTcO4^− injected adult female rats. (A) Radiotracer (1.5 mCi) was injected into the tail vein of nubile animals, and pin-hole images of the body were obtained at 30 min post-injection. (B) Lactating rats were imaged 5 min after ^99mTcO4^− injection. (C) To ascertain inhibition of ^99mTcO4^− uptake, ^99mTcO4^− and 20 mg perchlorate were co-injected into the tail vein, followed by static imaging at 5 min. (D) Immunoblot analysis. Membrane fractions isolated from rat tissues were electrophoresed, electrotransferred onto nitrocellulose, and immunoblotted with affinity-purified anti-NIS antibody (Ab) and horseradish peroxidase (HRP) linked anti-rabbit IgG (Amersham-Pharmacia, Piscataway, N.J.). Approximately 40 μg of membrane fractions were incubated (either with or without N-glycosidase F) overnight at 37° C., followed by SDS polyacrylamide gel electrophoresis and Western blot analysis. Lanes 1 and 2: thyroid; lanes 4 and 5: lactating MG; lanes 7 and 8: stomach; lane 10: non-lactating MG; lane 11: muscle; and lane 12: lung. […]

mgNIS [1] = molecular target: T2, mgNIS (Homo sapiens, UniProt Q92911); assay: 99mTc-pertechnetate scintigraphy of a person with locally-advanced breast cancer; format: in vivo; conditions: whole-body scan, invasive ductal carcinoma
T2 construct: from tissue; host or cells: person with locally-advanced invasive ductal carcinoma of the breast (whole-body scan)
T2 sequence (Q92911 1-643): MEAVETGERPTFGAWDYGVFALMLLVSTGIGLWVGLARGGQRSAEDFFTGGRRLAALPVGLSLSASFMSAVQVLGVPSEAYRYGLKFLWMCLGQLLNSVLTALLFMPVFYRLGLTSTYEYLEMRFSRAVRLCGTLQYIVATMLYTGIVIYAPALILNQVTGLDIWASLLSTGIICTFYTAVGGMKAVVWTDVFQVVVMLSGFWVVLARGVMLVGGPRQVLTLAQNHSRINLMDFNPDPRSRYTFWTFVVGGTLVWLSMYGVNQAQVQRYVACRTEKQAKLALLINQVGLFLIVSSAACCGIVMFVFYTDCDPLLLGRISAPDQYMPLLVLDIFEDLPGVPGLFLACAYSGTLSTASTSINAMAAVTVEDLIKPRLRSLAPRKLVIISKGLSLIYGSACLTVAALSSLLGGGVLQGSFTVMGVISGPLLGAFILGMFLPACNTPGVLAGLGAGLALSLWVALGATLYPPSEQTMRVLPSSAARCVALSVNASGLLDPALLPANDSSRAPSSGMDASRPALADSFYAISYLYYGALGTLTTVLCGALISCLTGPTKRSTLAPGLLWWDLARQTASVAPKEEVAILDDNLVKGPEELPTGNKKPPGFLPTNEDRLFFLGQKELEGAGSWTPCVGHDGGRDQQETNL
From the text: FIG. 7. ^99mTc-pertechnetate scintigraphy of a person with a locally-advanced cancer of the right breast and an enlarged thyroid. The patient was scanned after injection of 15 mCi of ^99mTc-labeled pertechnetate (^99mTcO4^−). Tracer accumulates in the thyroid and stomach. Tracer is present in the heart and liver due to vascular pooling. The arrow indicates distinct accumulation in the area of the breast cancer.
The results obtained from the studies on transgenic mice, and the similarity between the human breast cancer immunohistochemical patterns and those observed in thyroid cancer, indicate the likelihood that mgNIS expressed in human breast tumors is active. Clearly, the most direct way to determine the activity of mgNIS in breast cancer is to subject patients to scintigraphic evaluation with ^99mTcO4^−. One patient who was undergoing neoadjuvant hormonal therapy for locally-advanced breast cancer presented initially with an enlarged thyroid. Accordingly, they underwent whole-body ^99mTcO4^− scanning.

mgNIS [2] = molecular target: T3, mgNIS (Mus musculus, UniProt Q99PN0); format: in vivo, mice; design: Membrane fractions isolated from MG of nubile female mice; from tissue; host or cells: CD1 (ICR) mice (intact, ovariectomized, gestating) and MMTV-ras / MMTV-neu transgenic mice: mammary gland, mammary adenocarcinoma, stomach
T3 sequence (Q99PN0 1-618): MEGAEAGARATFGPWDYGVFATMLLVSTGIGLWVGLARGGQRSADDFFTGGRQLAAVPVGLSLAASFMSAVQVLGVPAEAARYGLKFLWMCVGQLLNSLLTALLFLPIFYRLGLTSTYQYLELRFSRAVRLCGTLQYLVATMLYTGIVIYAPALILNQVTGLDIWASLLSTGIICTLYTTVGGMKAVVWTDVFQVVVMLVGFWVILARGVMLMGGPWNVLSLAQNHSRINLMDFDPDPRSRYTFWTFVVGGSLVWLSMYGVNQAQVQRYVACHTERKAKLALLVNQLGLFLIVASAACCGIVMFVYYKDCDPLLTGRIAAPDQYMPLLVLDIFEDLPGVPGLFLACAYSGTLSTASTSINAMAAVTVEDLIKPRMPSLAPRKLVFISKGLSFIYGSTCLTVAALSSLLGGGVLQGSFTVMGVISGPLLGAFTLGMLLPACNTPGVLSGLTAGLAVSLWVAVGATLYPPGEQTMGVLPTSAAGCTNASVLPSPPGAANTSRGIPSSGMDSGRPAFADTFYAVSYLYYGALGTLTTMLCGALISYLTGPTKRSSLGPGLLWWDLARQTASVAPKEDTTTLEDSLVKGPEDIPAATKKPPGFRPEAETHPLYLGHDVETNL
Experimental: Analysis of mammary adenocarcinomas in MMTV-ras and MMTV-neu transgenic mice. (A) Photograph of MMTV-ras transgenic mouse with a mammary adenocarcinoma. Transgenic mice were anaesthetized with intramuscular sodium pentobarbital injections. […] (E) Dynamic curves of percent injected dose per pixel were calculated by drawing regions of interest around tumoral tissue and the mediastinum, and dividing the counts per pixel (average counts) within each region of interest by the initial whole-body count value, thereby yielding a percent injected dose per pixel. (F) Immunoblot analysis of membrane fractions isolated from MMTV-ras tumor with anti-NIS Ab. (I) Immunoblot analysis of membrane fractions isolated from MMTV-neu tumors with anti-NIS Ab. In an MMTV-neu mouse with two adjacent mammary glands containing tumors, each tumor is indicated with an arrow and numbered. Lanes “tu1”, “tu2”, and “mg” correspond to proteins extracted from tumor 1, tumor 2, and contralateral normal mammary gland, respectively.
To assess whether specific active I^− uptake (a result of mgNIS expression) occurred in the mammary tumoral cells, transgenic animals were imaged in vivo with either ^131I^− or ^99mTcO4^−. […] Quantification of the accumulation of the various tracers in the tumor, as a function of time, is also shown for the ras mouse.

mgNIS [3] = molecular target: T3, mgNIS; conditions: mice, 18th day of gestation, subcutaneous injection
Experimental: Animals at indicated days of gestation (3rd, 11th, or 18th) received a single dose of 1 μCi ^125I^− by subcutaneous injection in 100 μl of PBS. One hour later, MG were surgically removed, and radioactivity was quantified in a γ-counter (LKB 1282 Compugamma, Md.). Obtained values were standardized according to the weight of MG removed from each mouse, and were expressed as the ratio of radioiodide in MG tissue versus blood.

mgNIS [4] = molecular target: T3, mgNIS; assay: Ex vivo scintigraphic imaging of 99mTcO4- accumulation in organs of oxytocin-treated nubile mice; design: Membrane fractions isolated from MG of nubile female mice; from tissue; host or cells: CD1 (ICR) mice (intact, ovariectomized, gestating) and MMTV-ras / MMTV-neu transgenic mice: mammary gland, mammary adenocarcinoma, stomach; conditions: 2 mg perchlorate with tracer
Experimental: FIG. 3. In vivo effect of oxytocin on functional expression of mgNIS in nubile mice. (A) Radioiodide transport in MG of oxytocin-treated nubile mice. Seven- to eight-week-old female mice were treated subcutaneously with phosphate buffered saline solution (PBS), 10 I.U. of prolactin (PRL), 1 I.U. of oxytocin (OXY), or prolactin and oxytocin (PRL+OXY) for three days. Then, 1 μCi of ^125I^− was injected intraperitoneally. […] (B) Immunoblot analysis of MG from hormonally-treated mice. […] Isolated membrane fractions were electrophoresed, electrotransferred onto nitrocellulose, and analyzed by immunoblots using anti-NIS Ab. […] Perchlorate-inhibited accumulation of ^99mTcO4^− was detected in stomach and MG of OXY-treated animals. (D) Quantification of ^99mTcO4^− accumulation in various organs from OXY- or PBS-treated mice. Tracer accumulation was monitored using image analysis software (ImageQuant, Macintosh). […] Counts were divided by the weight of the organs (cpm/mg tissue), and standardized by dividing them by cpm detected in the blood (cpm/mg blood) of each animal. ^99mTcO4^− accumulation in the organs from: PBS-treated animals (open bars); OXY-treated animals (dotted bars); and OXY-treated animals after ^99mTcO4^−+perchlorate injection (dark bars). […]

[5] = lactating rats, single intraperitoneal injection

[O]=[99Tc](=[O])(=[O])[O-] [^99mTcO4^−, ^99mTc-pertechnetate]
time to concentration of 99mTcO4- in all pairs of MGs (NIS; lactating rats, tail vein injection): ≤ 5 min | tracer distribution in patient with breast tumor (mgNIS [1]): concentrated in the area of this patient's breast tumor | tracer accumulation in mammary tumor (mgNIS [2]; MMTV-ras and MMTV-neu mice, tail vein injection): accumulated in the stomach and tumor

[125IH] [^125I^−, radioiodide]
125I- concentration in lactating MG (lactating rat): concentrated in lactating MG | 125I- concentration in milk with respect to blood [5]: > 60 fold | time of saturation of 125I- accumulation in milk [5]: ~2 h | 125I- concentration in skeletal muscle or non-lactating MG (rat, in vivo): not concentrated | accumulation of radioiodide in MG compared with blood concentration (mgNIS [3]): 15 fold

[O-][Cl+3]([O-])([O-])O [perchlorate]
effect on 99mTcO4- concentration in thyroid, stomach, and lactating MG (NIS; lactating rat, 20 mg perchlorate co-injected, imaging at 5 min): effectively prevented | effect on 99mTcO4- accumulation in organs (mgNIS [4]): inhibited | effect on 99mTcO4- accumulation in tumor and stomach (mgNIS [2]; co-injected with the isotope): prevented
